Reference: patent publication US20250326753A1, “DUAL CXCR4-BTK INHIBITORS” (X4 Pharmaceuticals, Inc., priority 2022, published 2025)
Where two headings read alike, the source gives them in different places.

Assays:
EGFR = target: T1, EGFR (Homo sapiens, UniProt P00533); experiment: PanQinase kinase panel: EGFR; format: biochemical; details: read-out: INHIBITORY EFFECT @ 1 uM: EGFR
T1 construct: purchased Reaction Biology Europe GmbH
Description: (§1) Screening procedures were performed in accordance with the company's on-line protocol [accessed on-line Mar.
(§2) For each kinase, the median value of the cpm of three wells was defined as “low control” (n=3). This value reflects unspecific binding of radioactivity to the plate in the absence of a protein kinase but in the presence of the substrate. Additionally, for each kinase the median value of the cpm of three other wells was taken as the “high control,” i.e. full activity in the absence of any inhibitor (n=3). The difference between high and low control of each enzyme was taken as 100% activity.
(§3) As part of the data evaluation the low control of each kinase was subtracted from the high control value as well as from their corresponding “compound values”. The residual activity (in %) for each compound well was calculated by using the following formula: Res. Activity (%)=100×[(signal of compound−low control)/(high control−low control)].

LYN = target: T2, LYN (Homo sapiens, UniProt P07948); experiment: PanQinase kinase panel: LYN; format: biochemical; details: read-out: INHIBITORY EFFECT @ 1 uM: LYN
T2 construct: purchased Reaction Biology Europe GmbH
Description: as §1, §2, §3

SRMS = target: T3, SRMS (Homo sapiens, UniProt Q9H3Y6); experiment: PanQinase kinase panel: SRMS; format: biochemical; details: read-out: INHIBITORY EFFECT @ 1 uM: SRMS
T3 construct: purchased Reaction Biology Europe GmbH
Description: as §1, §2, §3

EPHA6 = target: T4, EPHA6 (Homo sapiens, UniProt Q9UF33); experiment: PanQinase kinase panel: EPHA6; format: biochemical; details: read-out: INHIBITORY EFFECT @ 1 uM: EPHA6
T4 construct: purchased Reaction Biology Europe GmbH
T4 sequence (Q9UF33 23-1036): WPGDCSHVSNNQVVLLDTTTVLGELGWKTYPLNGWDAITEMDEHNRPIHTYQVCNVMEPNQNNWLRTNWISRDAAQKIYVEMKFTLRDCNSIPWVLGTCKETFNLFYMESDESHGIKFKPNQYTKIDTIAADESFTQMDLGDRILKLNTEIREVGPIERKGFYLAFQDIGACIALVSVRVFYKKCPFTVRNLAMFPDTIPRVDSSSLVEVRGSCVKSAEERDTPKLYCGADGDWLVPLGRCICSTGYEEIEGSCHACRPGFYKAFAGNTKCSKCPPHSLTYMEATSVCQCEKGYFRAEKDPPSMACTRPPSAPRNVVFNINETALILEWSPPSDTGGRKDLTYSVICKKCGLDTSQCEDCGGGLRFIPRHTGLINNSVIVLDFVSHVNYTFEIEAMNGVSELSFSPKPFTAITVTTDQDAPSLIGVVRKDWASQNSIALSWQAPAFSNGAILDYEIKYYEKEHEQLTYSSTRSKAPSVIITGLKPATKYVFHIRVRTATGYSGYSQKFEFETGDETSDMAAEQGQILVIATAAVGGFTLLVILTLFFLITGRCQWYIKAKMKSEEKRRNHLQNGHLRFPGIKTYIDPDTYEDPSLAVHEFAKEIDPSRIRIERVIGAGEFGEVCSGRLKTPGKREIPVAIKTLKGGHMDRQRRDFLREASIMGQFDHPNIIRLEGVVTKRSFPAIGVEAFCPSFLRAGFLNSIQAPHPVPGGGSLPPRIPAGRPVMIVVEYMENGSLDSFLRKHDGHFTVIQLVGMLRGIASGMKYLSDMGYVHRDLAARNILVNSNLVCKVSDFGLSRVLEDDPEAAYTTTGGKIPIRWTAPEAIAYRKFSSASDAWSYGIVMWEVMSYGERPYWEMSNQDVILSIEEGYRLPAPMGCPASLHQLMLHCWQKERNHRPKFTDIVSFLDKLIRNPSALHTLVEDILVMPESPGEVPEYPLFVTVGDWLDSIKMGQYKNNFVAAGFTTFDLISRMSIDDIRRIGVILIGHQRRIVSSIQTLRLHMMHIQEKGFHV
Description: as §1, §2, §3

FES = target: T5, FES (Homo sapiens, UniProt P07332); experiment: PanQinase kinase panel: FES; format: biochemical; details: read-out: INHIBITORY EFFECT @ 1 uM: FES
T5 construct: purchased Reaction Biology Europe GmbH
Description: as §1, §2, §3

PAK2 = target: T6, PAK2 (Homo sapiens, UniProt Q13177); experiment: PanQinase kinase panel: PAK2; format: biochemical; details: read-out: INHIBITORY EFFECT @ 1 uM: PAK2
T6 construct: purchased Reaction Biology Europe GmbH
Description: as §1, §2, §3

PDGFRbeta = target: T7, PDGFRbeta (Homo sapiens, UniProt P09619); experiment: PanQinase kinase panel: PDGFRbeta; format: biochemical; details: read-out: INHIBITORY EFFECT @ 1 uM: PDGFRbeta
T7 construct: purchased Reaction Biology Europe GmbH
Description: as §1, §2, §3

CDK13/CycK = target: T8, CDK13/CycK (Homo sapiens, UniProt Q14004); experiment: PanQinase kinase panel: CDK13/CycK; format: biochemical
T8 construct: purchased Reaction Biology Europe GmbH
Description: Screening procedures were performed in accordance with the company's on-line protocol [accessed on-line Mar. 25, 2022 at reaction biology.com/assay-protocol-panqinase]. Inhibitory activity of 50% or greater at concentrations of 1 μM are highlighted for all five compounds tested.
as §2, §3

CXCR4 = CXCR4 (Homo sapiens, UniProt P61073); experiment: Intracellular CXCL-12-induced calcium mobilization assay (FLIPR), U87.CXCR4 cells; format: cell-based; set-up: expressed in transfected cells; host or cells: U87 (U87.CXCR4); details: CXCL-12 25-50 ng/ml, read-out: IC50 CXCL-12 Ca2+ flux U87.CXCR4+
Summary of the method: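 U87 cells transfected with CXCR4 were loaded with 4 μM Fluo-2 AM for 45 min at 37° C in HBSS with 20 mM HEPES and 0.2% BSA, pH 7.4. Calcium mobilization induced by CXCL-12 (25-50 ng/ml) was followed over time by FLIPR fluorescence at 37° C.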

[1] = read-out: INHIBITORY EFFECT @ 1 uM: CDK13/CycK

T2 sequence (P07948 whole entry): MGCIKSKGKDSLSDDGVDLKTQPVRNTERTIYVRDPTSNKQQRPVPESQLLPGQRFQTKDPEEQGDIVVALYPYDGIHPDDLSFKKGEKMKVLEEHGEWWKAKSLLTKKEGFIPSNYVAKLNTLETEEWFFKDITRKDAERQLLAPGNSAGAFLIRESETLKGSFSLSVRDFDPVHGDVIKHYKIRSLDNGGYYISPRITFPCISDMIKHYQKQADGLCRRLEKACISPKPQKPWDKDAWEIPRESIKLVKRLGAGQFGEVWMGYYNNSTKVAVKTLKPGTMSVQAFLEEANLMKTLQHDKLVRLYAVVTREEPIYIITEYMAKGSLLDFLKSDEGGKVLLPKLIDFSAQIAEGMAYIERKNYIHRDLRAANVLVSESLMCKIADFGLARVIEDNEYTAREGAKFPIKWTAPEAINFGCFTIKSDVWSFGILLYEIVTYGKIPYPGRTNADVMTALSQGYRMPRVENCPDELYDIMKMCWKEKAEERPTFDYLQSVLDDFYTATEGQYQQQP
T5 sequence (P07332 whole entry): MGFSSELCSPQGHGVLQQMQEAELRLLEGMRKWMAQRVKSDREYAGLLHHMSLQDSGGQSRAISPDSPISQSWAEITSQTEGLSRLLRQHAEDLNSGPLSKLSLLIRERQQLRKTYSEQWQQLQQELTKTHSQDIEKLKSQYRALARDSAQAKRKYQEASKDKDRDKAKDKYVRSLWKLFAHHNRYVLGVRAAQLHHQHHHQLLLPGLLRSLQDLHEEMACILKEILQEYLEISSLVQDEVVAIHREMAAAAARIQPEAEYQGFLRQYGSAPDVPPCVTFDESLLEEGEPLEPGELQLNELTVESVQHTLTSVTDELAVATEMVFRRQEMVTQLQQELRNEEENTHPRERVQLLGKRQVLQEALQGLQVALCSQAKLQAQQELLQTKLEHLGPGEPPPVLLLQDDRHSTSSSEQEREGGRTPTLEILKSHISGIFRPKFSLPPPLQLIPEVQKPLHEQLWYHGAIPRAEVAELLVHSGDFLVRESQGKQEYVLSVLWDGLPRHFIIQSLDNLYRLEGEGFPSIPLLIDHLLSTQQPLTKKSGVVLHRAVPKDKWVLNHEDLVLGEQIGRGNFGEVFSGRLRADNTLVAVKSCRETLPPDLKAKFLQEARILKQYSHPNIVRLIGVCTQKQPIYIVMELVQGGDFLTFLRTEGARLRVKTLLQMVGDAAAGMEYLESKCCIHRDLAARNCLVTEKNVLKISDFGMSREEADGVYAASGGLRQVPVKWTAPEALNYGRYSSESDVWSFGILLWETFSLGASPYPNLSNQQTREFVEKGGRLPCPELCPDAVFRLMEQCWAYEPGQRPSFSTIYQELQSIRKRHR
T3 sequence (Q9H3Y6 whole entry): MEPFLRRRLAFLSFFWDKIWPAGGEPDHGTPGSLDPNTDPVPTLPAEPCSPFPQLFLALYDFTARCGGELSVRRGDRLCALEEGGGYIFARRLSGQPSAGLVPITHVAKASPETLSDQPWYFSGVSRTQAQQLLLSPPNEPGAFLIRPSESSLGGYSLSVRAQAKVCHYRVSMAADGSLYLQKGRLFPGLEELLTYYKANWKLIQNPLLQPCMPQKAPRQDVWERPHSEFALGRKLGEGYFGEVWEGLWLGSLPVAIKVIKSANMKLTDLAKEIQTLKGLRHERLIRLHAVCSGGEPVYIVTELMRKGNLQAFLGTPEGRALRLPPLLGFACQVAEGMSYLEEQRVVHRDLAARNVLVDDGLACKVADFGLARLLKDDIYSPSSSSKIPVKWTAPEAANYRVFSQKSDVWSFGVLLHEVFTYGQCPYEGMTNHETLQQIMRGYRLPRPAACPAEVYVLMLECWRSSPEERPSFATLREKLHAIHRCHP
Sequence of CXCR4 (P61073 whole entry): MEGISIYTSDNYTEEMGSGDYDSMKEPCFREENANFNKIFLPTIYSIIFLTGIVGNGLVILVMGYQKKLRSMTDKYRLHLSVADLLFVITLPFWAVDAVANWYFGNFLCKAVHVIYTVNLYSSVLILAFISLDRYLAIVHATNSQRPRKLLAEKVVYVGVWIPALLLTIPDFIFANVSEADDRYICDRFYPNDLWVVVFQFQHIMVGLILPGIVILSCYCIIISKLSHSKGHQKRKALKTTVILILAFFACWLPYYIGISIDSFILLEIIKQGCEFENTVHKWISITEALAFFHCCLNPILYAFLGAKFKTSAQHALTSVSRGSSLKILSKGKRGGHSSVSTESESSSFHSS
T1 sequence (P00533 25-1210): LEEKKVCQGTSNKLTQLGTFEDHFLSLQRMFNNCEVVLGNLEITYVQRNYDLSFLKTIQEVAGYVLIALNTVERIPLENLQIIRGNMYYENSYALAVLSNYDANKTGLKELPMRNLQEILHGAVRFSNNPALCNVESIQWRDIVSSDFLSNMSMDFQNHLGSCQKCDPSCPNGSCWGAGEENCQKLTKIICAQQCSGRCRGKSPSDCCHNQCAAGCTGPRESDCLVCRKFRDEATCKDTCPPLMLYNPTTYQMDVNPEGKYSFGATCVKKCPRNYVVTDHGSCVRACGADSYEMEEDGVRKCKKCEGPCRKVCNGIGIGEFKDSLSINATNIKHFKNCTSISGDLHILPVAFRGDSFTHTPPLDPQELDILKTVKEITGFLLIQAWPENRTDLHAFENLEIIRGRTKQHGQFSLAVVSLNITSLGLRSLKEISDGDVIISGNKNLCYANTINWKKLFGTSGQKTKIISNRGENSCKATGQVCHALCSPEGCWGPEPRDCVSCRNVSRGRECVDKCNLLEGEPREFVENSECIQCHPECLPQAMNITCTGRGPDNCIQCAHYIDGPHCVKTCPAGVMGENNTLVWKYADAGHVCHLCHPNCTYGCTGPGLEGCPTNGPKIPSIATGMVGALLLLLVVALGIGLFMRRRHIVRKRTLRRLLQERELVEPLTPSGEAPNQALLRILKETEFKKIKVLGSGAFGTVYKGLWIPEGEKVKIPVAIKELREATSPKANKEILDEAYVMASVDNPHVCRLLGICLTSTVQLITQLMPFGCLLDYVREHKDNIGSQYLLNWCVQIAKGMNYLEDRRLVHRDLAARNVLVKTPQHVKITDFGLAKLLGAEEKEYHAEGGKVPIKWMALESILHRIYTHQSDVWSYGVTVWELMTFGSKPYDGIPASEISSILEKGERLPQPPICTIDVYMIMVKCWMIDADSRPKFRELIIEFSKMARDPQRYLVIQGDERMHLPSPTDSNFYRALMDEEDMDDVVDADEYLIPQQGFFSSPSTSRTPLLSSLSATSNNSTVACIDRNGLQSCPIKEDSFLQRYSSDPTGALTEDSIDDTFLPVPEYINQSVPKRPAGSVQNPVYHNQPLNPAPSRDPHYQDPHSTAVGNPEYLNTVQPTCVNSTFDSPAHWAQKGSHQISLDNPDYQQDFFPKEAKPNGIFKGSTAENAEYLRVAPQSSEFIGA
T6 sequence (Q13177 whole entry): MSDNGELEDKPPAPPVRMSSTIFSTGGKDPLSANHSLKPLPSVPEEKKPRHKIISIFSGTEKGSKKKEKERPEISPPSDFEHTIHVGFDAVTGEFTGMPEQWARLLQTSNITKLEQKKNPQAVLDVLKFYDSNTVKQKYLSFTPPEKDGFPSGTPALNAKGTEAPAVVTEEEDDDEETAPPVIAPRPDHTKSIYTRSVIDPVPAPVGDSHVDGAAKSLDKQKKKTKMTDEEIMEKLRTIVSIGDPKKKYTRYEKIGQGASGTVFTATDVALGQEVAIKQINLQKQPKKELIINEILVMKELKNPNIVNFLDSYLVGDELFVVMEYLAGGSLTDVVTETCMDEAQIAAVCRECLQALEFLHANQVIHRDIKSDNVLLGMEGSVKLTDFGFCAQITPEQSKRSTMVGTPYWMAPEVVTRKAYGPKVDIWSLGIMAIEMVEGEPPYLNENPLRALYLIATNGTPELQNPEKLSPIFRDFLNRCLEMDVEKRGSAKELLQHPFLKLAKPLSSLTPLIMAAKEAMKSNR
T7 sequence (P09619 33-1106): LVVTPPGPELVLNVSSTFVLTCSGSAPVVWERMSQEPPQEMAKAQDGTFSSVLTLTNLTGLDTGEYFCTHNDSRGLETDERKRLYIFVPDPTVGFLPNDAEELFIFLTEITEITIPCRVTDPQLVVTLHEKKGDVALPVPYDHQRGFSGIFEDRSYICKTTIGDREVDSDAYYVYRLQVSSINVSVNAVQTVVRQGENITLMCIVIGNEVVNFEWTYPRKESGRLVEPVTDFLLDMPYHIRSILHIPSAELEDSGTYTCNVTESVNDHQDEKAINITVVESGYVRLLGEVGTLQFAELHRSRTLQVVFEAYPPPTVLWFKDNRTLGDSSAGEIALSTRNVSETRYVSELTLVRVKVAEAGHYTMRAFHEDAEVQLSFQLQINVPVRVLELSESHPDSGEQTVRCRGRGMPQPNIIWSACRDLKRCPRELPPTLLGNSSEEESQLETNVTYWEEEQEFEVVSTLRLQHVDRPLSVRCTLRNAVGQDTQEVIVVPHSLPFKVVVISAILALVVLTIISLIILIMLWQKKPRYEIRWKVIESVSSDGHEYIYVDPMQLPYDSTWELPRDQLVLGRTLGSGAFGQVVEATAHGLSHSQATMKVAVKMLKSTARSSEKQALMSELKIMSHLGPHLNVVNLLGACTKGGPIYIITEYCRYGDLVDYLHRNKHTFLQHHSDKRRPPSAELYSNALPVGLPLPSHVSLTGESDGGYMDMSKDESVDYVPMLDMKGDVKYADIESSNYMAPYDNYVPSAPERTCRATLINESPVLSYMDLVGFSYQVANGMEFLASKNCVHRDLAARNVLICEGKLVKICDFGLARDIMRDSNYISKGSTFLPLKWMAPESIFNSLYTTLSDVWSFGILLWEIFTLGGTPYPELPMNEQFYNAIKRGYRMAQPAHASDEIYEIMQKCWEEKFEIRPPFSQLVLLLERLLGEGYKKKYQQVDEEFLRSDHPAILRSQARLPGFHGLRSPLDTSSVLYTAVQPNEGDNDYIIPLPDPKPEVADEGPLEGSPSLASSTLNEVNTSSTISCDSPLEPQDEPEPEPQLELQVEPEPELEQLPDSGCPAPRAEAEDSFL

SMILES	IC50 (CXCR4)	inhibition at 1 µM (EGFR)	inhibition at 1 µM (LYN)	inhibition at 1 µM (SRMS)	inhibition at 1 µM (EPHA6)	inhibition at 1 µM (FES)	inhibition at 1 µM (PAK2)	inhibition at 1 µM (PDGFRbeta)	inhibition at 1 µM (CDK13/CycK; at 1 μM, read-out: inhibition of CDK13/CycK)	inhibition at 1 µM (CDK13/CycK; [1])
O=C(c1ccc(Oc2ccccc2)cc1Cl)c1c[nH]c2ncnc(N[C@@H]3CC[C@@H](CO)OC3)c12 [ARQ-531, (2-chloro-4-phenoxyphenyl) (4-(((3R,6S)-6-(hydroxymethyl)tetrahydro-2H-pyran-3-yl)amino)-7H-pyrrolo[2,3-d]pyrimidin-5-yl) methanone]		70 to 89%	70 to 89%	90 to 100%	50 to 69%	50 to 69%	70 to 89%	< 50%		
Cc1cccnc1[C@H]1CCC[C@@H](c2ncccc2C)N1CCN1CCN(C(=O)c2ccc(-c3cc4c(-c5cccc(NC(=O)c6ccccc6)c5C)ncnc4[nH]3)cc2)CC1 [Compound I-10, N-(3-(6-(4-(4-(2-((2R,6S)-2,6-bis(3-methylpyridin-2-yl)piperidin-1-yl)ethyl)piperazine-1-carbonyl)phenyl)-7H-pyrrolo[2,3-d]pyrimidin-4-yl)-2-methylphenyl)benzamide]	1 to 100 nM	< 50%	< 50%	< 50%	< 50%	< 50%	< 50%	< 50%	50 to 89%	50 to 69%
COc1ccc(F)cc1C(=O)NCc1ccc(-c2nn([C@@H](C)C(F)(F)F)c(N)c2C(N)=O)cc1 [LOXO-305, pirtobrutinib]		< 50%	< 50%	< 50%	< 50%	< 50%	< 50%	< 50%		< 50%
C=CC(=O)N1CCC([C@@H]2CCNc3c(C(N)=O)c(-c4ccc(Oc5ccccc5)cc4)nn32)CC1 [Zanubrutinib, (7S)-2-(4-phenoxyphenyl)-7-(1-prop-2-enoylpiperidin-4-yl)-4,5,6,7-tetrahydropyrazolo[1,5-a]pyrimidine-3-carboxamide]		< 50%		< 50%	< 50%	< 50%	< 50%	< 50%		< 50%

The next lines start with results.

IC50 (CXCR4)	SMILES	inhibition at 1 µM (EGFR)	inhibition at 1 µM (LYN)	inhibition at 1 µM (SRMS)	inhibition at 1 µM (EPHA6)	inhibition at 1 µM (FES)	inhibition at 1 µM (PAK2)	inhibition at 1 µM (PDGFRbeta)	inhibition at 1 µM (CDK13/CycK; at 1 μM, read-out: inhibition of CDK13/CycK)	inhibition at 1 µM (CDK13/CycK; [1])
100 to 1000 nM	Cc1cc(-c2ccnc(Nc3cnn(CCN4[C@@H](c5ncccc5C)CCC[C@H]4c4ncccc4C)c3)n2)ccc1CNC(=O)N1CC(OC(C)C)C1 [Compound I-11]									
100 to 1000 nM	Cc1cccnc1[C@H]1CCC[C@@H](c2ncccc2C)N1CCCCNC(=O)[C@@H]1CC[C@@H](Nc2ncnc3[nH]cc(C(=O)c4ccc(Oc5ccccc5)cc4Cl)c23)CO1 [Compound I-16]									
> 2500 nM	Cc1cccnc1[C@H]1CCC[C@@H](c2ncccc2C)N1CCCCNC(=O)OC[C@@H]1CC[C@@H](Nc2ncnc3[nH]cc(C(=O)c4ccc(Oc5ccccc5)cc4Cl)c23)CO1 [Compound I-18]									
